Laboratory results published in PMC12386606, “Evaluation of the In Vitro Blood–Brain Barrier Transport of Ferula persica L. Bioactive Compounds” (International Journal of Molecular Sciences, 2025).
Like-named read-outs stand apart in the source and are kept apart here.

What was measured:
HBMEC cells = assay: Blood–brain barrier transport study in HBMEC Transwell monolayer; conditions: for crossing of the HBMEC-BBB: AerExt 40 µg mL^−1 / RootExt 20 µg mL^−1, 2, 4, 24 h; for RootExt Te (%) ± SD 2 h / RootExt Te (%) ± SD 4 h / RootExt Te (%) ± SD 24 h: RootExt 20 µg mL^−1 apical; for RootExt Te (%) ± SD 2 h / RootExt Te (%) ± SD 4 h / RootExt Te (%) ± SD 24 h / AerExt Te (%) ± SD 2 h / AerExt Te (%) ± SD 4 h / AerExt Te (%) ± SD 24 h: n.q. = not quantified in the basolateral compartment; for AerExt Te (%) ± SD 2 h / AerExt Te (%) ± SD 4 h / AerExt Te (%) ± SD 24 h: AerExt 40 µg mL^−1 apical
Method: After the toxicity evaluation, the HBMEC cell line was also used as a simplified in vitro model of the BBB endothelium. Cells were seeded at a density of 1.6 × 10^5 cells/cm^2 in 12-well Transwell® plates (Corning Costar Corp., Corning, USA) with a pore diameter of 0.4 μm, pre-coated with type I rat tail collagen (100 μg mL^−1) [55]. The culture medium was renewed every 2 days until a monolayer cell structure was formed (see Supplementary Figure S2), and transport experiments were initiated after 10 days. In transport experiments, the medium in the apical (upper) compartment of the Transwell system was removed, and 0.5 mL of AerExt or RootExt at a concentration of 40 μg mL^−1 and 20 μg mL^−1, respectively, was added to these compartments (applied in duplicate). Also, a medium containing 0.4% (v/v) ethanol was used as control group. The basolateral (lower) compartments were filled with 1.5 mL of fresh culture medium. The cells were incubated under these conditions for 2, 4, and 24 h.
At the end of the incubation periods, media samples were collected from both chambers and lyophilized using a freeze-drying system from Martin Christ (Osterode am Harz, Germany). The samples were stored at −80 °C until analysis. The collected samples were subjected to chemical analyses to evaluate the ability of bioactive compounds contained in the extracts to pass through the cell monolayer.
The transport efficiency (Te) of bioactive substances was calculated based on Equation (3), described by [56]:Te (%) = CLower/CUpper × 100(3)
This calculation was performed to understand whether the compound crosses the cell layer and how efficiently it is transported.
For this purpose, 0.2 mL of cold water (H2O) was added to the samples, and the samples were vortexed for 10 s. Then, 0.8 mL of cold methanol was added and vortexed again for 10 s. Then, the mixture was centrifuged at 14,000 rpm for 5 min, and the supernatant was carefully transferred to a 1.5 mL Eppendorf tube and dried in a SpeedVac device at 40 °C and 13 bar pressure. Finally, the dried samples were resuspended in 25 μL of pure ethanol for their subsequent analysis.
For HPLC-Q-TOF MS/MS analysis, aliquots of 2 μL were injected into an HPLC model 1290 coupled to a Q-TOF series 6540 (Agilent Technologies, Waldbronn, Germany). For GC-Q-TOF MS analysis, aliquots of 1 μL were injected with a split ratio of 1:10 into a GC model 7890B coupled to a Q-TOF series 7200 (Agilent Technologies, Waldbronn, Germany). The HPLC-MS and GC-MS chromatograms were processed using the Agilent Mass Hunter Qualitative software (version B.10.0) to verify the retention time and exact mass of the compounds previously reported by us [25] and to extract their peak area to calculate the BBB permeability.

[1] = Parallel artificial membrane permeability assay for the blood–brain barrier (PAMPA-BBB); conditions: for AerExt log Pe: compound within AerExt donor solution; for AerExt log Pe / RootExt log Pe: 37 °C, 4 h, PBS pH 7.4, n.q. = not quantified in the acceptor plate; for RootExt log Pe: compound within RootExt donor solution; for AerExt Cross BBB Potential: compound within AerExt; for AerExt Cross BBB Potential / RootExt Cross BBB Potential: PAMPA-BBB; for Papp at 4 h: PAMPA, pH 7.4; for RootExt Cross BBB Potential: compound within RootExt
Method: The permeability of bioactive compounds from AerExt and RootExt across the BBB was assessed using the PAMPA-BBB assay, following the methodology described by [11]. Firstly, the BBB solution was prepared by dissolving 8 mg of PBL and 4 mg of cholesterol in 600 μL of n-dodecane. The initial donor solution was prepared by mixing 1 mL of AerExt or RootExt (at 10 mg mL^−1 in EtOH) with 1 mL of buffer (PBS, pH = 7.4, 10 mM). The filter membrane of the donor plate was coated with 5 μL of BBB solution. The acceptor plate was filled with 350 μL of buffer, and the donor plate was carefully placed on top of the acceptor plate to form a “sandwich-like” assembly. Subsequently, 350 μL of the donor solution was added to the donor plate, which was then covered and incubated at 37 °C for 4 h in the dark. After the incubation time, 300 μL of the solution was collected from each plate, transferred into separate vials, and evaporated using a SpeedVac system at 40 °C under 13 mbar pressure. The dried acceptor and donor solutions were dissolved in 50 μL of pure EtOH before being subjected to HPLC-Q-TOF-MS/MS and GC-Q-TOF-MS analysis. Permeability (Pe) across the PAMPA-BBB of the bioactive compound was calculated according to Equation (1) [54], with modifications in concentration rates.Pe = −ln[1 − CA(t)/Cequilibrium]/(A × (1/VD + 1/VA) × t)(1)
Cequilibrium was calculated according to Equation (2):Cequilibrium = [CD(t) × VD + CA(t) × VA]/(VD + VA)(2)
The HPLC-MS and GC-MS chromatograms were processed using the Agilent Mass Hunter Qualitative software (version B.10.0) to verify the retention time and exact mass of the compounds previously reported by us [25] and to extract their peak area to calculate the BBB permeability.

[2] = oil/water partition coefficient, ref PubChem, cited from earlier work

Row | Compound | AerExt log Pe [1] | log p ([2]; Table 1) | RootExt log Pe [1] | also measured
1 | Oc1ccc(O)c(O)c1 [1,2,4-benzenetriol] | n.q. | 1.5 |  | crossing of the HBMEC-BBB (HBMEC cells): could not cross the HBMEC-BBB; RootExt Te (%) ± SD 2 h (HBMEC cells): n.q.; RootExt Te (%) ± SD 4 h (HBMEC cells): n.q.; RootExt Te (%) ± SD 24 h (HBMEC cells): n.q.
2 | O=C(O)c1cccc(O)c1O [2,3-dihydroxybenzoic acid] | n.q. | 1.2 |  | AerExt Te (%) ± SD 2 h (HBMEC cells): 17.5 ± 3.5%; AerExt Te (%) ± SD 4 h (HBMEC cells): 9.6 ± 0.6%; AerExt Te (%) ± SD 24 h (HBMEC cells): 14.0 ± 3.9%; RootExt Te (%) ± SD 2 h (HBMEC cells): 21.4 ± 5.3%; RootExt Te (%) ± SD 4 h (HBMEC cells): 23.9 ± 4.4%; RootExt Te (%) ± SD 24 h (HBMEC cells): 214.1 ± 45.4%; log p ([2]; Table 2): 1.5
3 | O=C(O)C=Cc1cc(O)ccc1O [2,5-dihydroxycinnamic acid] | −5.68 | 1.2 | −5.22 | crossing of the HBMEC-BBB (HBMEC cells): could not cross the HBMEC-BBB; RootExt Te (%) ± SD 2 h (HBMEC cells): n.q.; RootExt Te (%) ± SD 4 h (HBMEC cells): n.q.; RootExt Te (%) ± SD 24 h (HBMEC cells): n.q.
4 | O=C(O)/C=C/c1ccc(O)cc1 [4-coumaric acid] | n.q. | 1.5 | n.q. | AerExt Te (%) ± SD 2 h (HBMEC cells): n.q.; AerExt Te (%) ± SD 4 h (HBMEC cells): n.q.; AerExt Te (%) ± SD 24 h (HBMEC cells): n.q.; RootExt Te (%) ± SD 2 h (HBMEC cells): n.q.; RootExt Te (%) ± SD 4 h (HBMEC cells): n.q.; RootExt Te (%) ± SD 24 h (HBMEC cells): n.q.
5 | COc1ccc(C=O)c(O)c1 [4-methoxysalicylaldehyde] | n.q. | 1.5 |  | crossing of the HBMEC-BBB (HBMEC cells): could not cross the HBMEC-BBB; AerExt Te (%) ± SD 2 h (HBMEC cells): n.q.; AerExt Te (%) ± SD 4 h (HBMEC cells): n.q.; AerExt Te (%) ± SD 24 h (HBMEC cells): n.q.; RootExt Te (%) ± SD 2 h (HBMEC cells): n.q.
6 | C=CC(C)(O)CC/C=C(\C)CCC=C(C)C (stereo not shown) [(E)-nerolidol] | n.q. | 4.6 | n.q. | 
7 | C[C@@H]1CCCC2=CC[C@@H]3[C@@H](C3(C)C)[C@]21C [(–)-aristolene] | n.q. | 4.7 | n.q. | 
8 | CC1=CCC[C@@H](C)[C@]12CC[C@@H](C(C)(C)O)C2 [Agarospirol] | n.q. | 3.7 | n.q. | 
9 | O=c1cc(-c2ccc(O)cc2)oc2cc(O[C@@H]3O[C@H](CO)[C@@H](O)[C@H](O)[C@H]3O)cc(O)c12 [Apigenin 7-glucoside] |  | −0.1 | n.q. | crossing of the HBMEC-BBB (HBMEC cells): could not cross the HBMEC-BBB; AerExt Te (%) ± SD 2 h (HBMEC cells): n.q.; AerExt Te (%) ± SD 4 h (HBMEC cells): n.q.; AerExt Cross BBB Potential [1]: + (log Pe < −6.5)
10 | O=c1cc(-c2ccc(O)cc2)oc2cc(O)cc(O)c12 [Apigenin] |  | 1.7 | n.q. | AerExt Te (%) ± SD 2 h (HBMEC cells): 4.2 ± 0.9%; AerExt Te (%) ± SD 4 h (HBMEC cells): 5.1 ± 0.3%; AerExt Te (%) ± SD 24 h (HBMEC cells): 309.7 ± 93.0%; Papp at 4 h [1]: 97.7 ×10⁻⁶ cm/s
11 | CC1=C2CCC(C)C2CC(C(C)(C)O)CC1 (stereo not shown) [Bulnesol] | n.q. | 3.8 | n.q. | 
12 | COc1cc(-c2cc(=O)c3c(O)cc(O)cc3o2)ccc1O [Chrysoeriol] | n.q. | 1.7 |  | 
13 | COc1ccc(-c2cc(=O)c3c(O)cc(O)cc3o2)cc1O [Diosmetin] |  | 1.7 |  | Papp at 4 h [1]: 148 ×10⁻⁶ cm/s
14 | COc1cc2ccc(=O)oc2c(O)c1OC [Fraxidin] | −4.82 | 1.5 | −4.81 | 
15 | CC(=O)OC(C)(C)[C@@H]1CC[C@H](C)C2=C(C1)[C@@H](C)CC2 [Guaiol acetate] | n.q. | 3.6 | −5.05 | 
16 | C[C@H]1CC[C@@H](C(C)(C)O)CC2=C1CC[C@@H]2C [Guaiol] | n.q. | 3.1 | n.q. | 
17 | COc1ccc([C@@H]2CC(=O)c3c(O)cc(O[C@@H]4O[C@H](CO[C@@H]5O[C@@H](C)[C@H](O)[C@@H](O)[C@H]5O)[C@@H](O)[C@H](O)[C@H]4O)cc3O2)cc1O [Hesperidin] | n.q. | −1.1 | n.q. | AerExt Te (%) ± SD 2 h (HBMEC cells): n.q.; AerExt Te (%) ± SD 4 h (HBMEC cells): n.q.; AerExt Te (%) ± SD 24 h (HBMEC cells): n.q.; RootExt Te (%) ± SD 2 h (HBMEC cells): n.q.; RootExt Te (%) ± SD 4 h (HBMEC cells): n.q.; RootExt Te (%) ± SD 24 h (HBMEC cells): n.q.

Row | Compound | AerExt log Pe [1] | log p ([2]; Table 1) | RootExt log Pe [1] | also measured
18 | O=c1c(OC2OC(CO)C(O)C(O)C2O)c(-c2ccc(O)c(O)c2)oc2cc(O)cc(O)c12 (stereo not shown) [Isoquercetrin] | n.q. | −0.2 | n.q. | AerExt Cross BBB Potential [1]: –; RootExt Cross BBB Potential [1]: –
19 | CC(=O)O[C@@H]1[C@@H](OC(C)=O)[C@@H](O)[C@H](Oc2c(-c3ccc(O)cc3)oc3cc(O)cc(O)c3c2=O)O[C@H]1C [Kaempferol 3-O-(3″,4″-di-O-acetyl-a-L-rhamnopyranoside)] | n.q. | −0.9 |  | 
20 | O=c1cc(-c2ccc(O)c(O)c2)oc2cc(O[C@@H]3O[C@H](CO)[C@@H](O)[C@H](O)[C@H]3O)cc(O)c12 [Luteolin 7-glucoside] |  | 0.5 | n.q. | AerExt Cross BBB Potential [1]: + (log Pe < −6.5)
21 | C=CCc1cc(OC)c2c(c1)OCO2 [Myristicin] |  | 2.9 | n.q. | 
22 | O=C(O)[C@]1(O)C[C@@H](O)[C@@H](O)[C@H](O)C1 [Quinic acid] |  | −2.4 |  | AerExt Cross BBB Potential [1]: + (log Pe < −6.5)
23 | CC1CCCC2(C)CCC(C(C)(C)O)C=C12 (stereo not shown) [Rosifoliol] | n.q. | 3.9 | n.q. | 
24 | CC1=CCC[C@]2(C)CCC(=C(C)C)C[C@@H]12 [Selina-3,7(11)-diene] | n.q. | 4.4 | n.q. | 
25 | COc1cc([C@H]2OC[C@H]3[C@@H]2CO[C@@H]3c2cc(OC)c(O[C@@H]3O[C@H](CO)[C@@H](O)[C@H](O)[C@H]3O)c(OC)c2)cc(OC)c1O [Syringaresinol glucoside] | n.q. | −1.4 | n.q. | 
26 | C[C@@H]1CCC=C2CC[C@@H](C(C)(C)O)C[C@]21C [Valerianol] | −5.35 | 3.5 | −5.59 | RootExt Cross BBB Potential [1]: + (log Pe < −6.5)
27 | CC1=C2C[C@H](C(C)(C)O)CC[C@]2(C)CCC1 [epi-γ-eudesmol] |  | 2.9 |  | AerExt Cross BBB Potential [1]: + (log Pe < −6.5); RootExt Cross BBB Potential [1]: + (log Pe < −6.5)
28 | COc1cc(/C=C/CO)cc(OC)c1O [trans-sinapyl alcohol] |  | 1.3 |  | RootExt Cross BBB Potential [1]: + (log Pe < −6.5)
29 | CC(C)=CCC[C@](C)(O)[C@@H]1CC=C(C)CC1 [α-bisabolol] |  | 1.3 |  | AerExt Cross BBB Potential [1]: + (log Pe < −6.5); RootExt Cross BBB Potential [1]: + (log Pe < −6.5)
30 | C/C1=C\CC/C(C)=C/CC(C)(C)/C=C/C1 [α-humulene] | n.q. | 4.5 | n.q. | 
31 | C=CC1(C)CCC(=C(C)C)CC1C(=C)C (stereo not shown) [γ-elemene] | n.q. | 5.4 | n.q. | 
32 | CC1=C2C[C@H](C(C)(C)O)CC[C@@]2(C)CCC1 [γ-eudesmol] |  | 3.7 |  | AerExt Cross BBB Potential [1]: + (log Pe < −6.5); RootExt Cross BBB Potential [1]: + (log Pe < −6.5)
33 | Farnesyl acetate | −5.25 | 5.3 |  | 
34 | α-epi-7-epi-5-eudesmol | n.q. | 3.4 | n.q. | 
